In BindingDB's records for doi:10.1007/s10822-022-00478-x (Roche Innovation Center Basel, F. Hoffmann-La Roche Ltd., 2022) one finds IC50 data, which are given here for 59 compounds.

The assay concerns the target cAMP and cAMP-inhibited cGMP 3',5'-cyclic phosphodiesterase 10A (Homo sapiens, UniProt Q9Y233). Briefly: PDE10A assay. An outline of the steps:
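Human PDE10A (2 ng/well) preincubated 15 min RT with compound in HEPES pH 7.5, 10 mM MgCl2, BSA, then reacted 15 min with 50 nM [3H]cGMP/cGMP substrate. Stopped with Y-Si SPA beads; bound radioactivity counted, IC50 from four-parameter logistic, pIC50 = −log10(IC50).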

Regarding `CN(C)c1nc(/C=C/c2nc(Br)cs2)nc2ccc(Cl)cc12` [Roche-Dataset for PDE10A, Compound 612], the half-maximal inhibitory concentration (IC50) was found to be 1.47 µM.
Consider `CCc1cc(C(F)(F)F)c2nc(CCc3nc(N4CCCC4)nn3C)nn2c1C` [Roche-Dataset for PDE10A, Compound 171], for which the IC50 stood at 0.00337 µM.
Under `O=C(Nc1cccc(OCC(F)(F)F)c1)c1nc(C2CC2)cnc1Nc1cncnc1` [Roche-Dataset for PDE10A, Compound 694] stands 0.016 µM; under `Cn1ncc(C(=O)N2CCOCC2)c1C(=O)N[C@H]1CCn2cc(-c3ccccc3Cl)nc2C1` [Roche-Dataset for PDE10A, Compound 1009], 0.436 µM.
Under `Cc1cc(Nc2cncnc2)cc(C(=O)Nc2cc(-c3ccccn3)nn2C)n1` [Roche-Dataset for PDE10A, Compound 542] stands 0.092 µM; under `Cc1c(Cl)nn2c(C)c(/C=C/c3nc(N4CCCC4)nn3C)nc2c1C` [Roche-Dataset for PDE10A, Compound 309], 0.048 µM; under `Cc1ncc(C)n2nc(CCc3nc(N4CC[C@@H](C)C4)nn3C)nc12` [Roche-Dataset for PDE10A, Compound 447], 0.028 µM.
The figure for `Cc1cnc(C)n2nc(/C=C/c3nc(N4CCCC4)nn3C3CC3)nc12` [Roche-Dataset for PDE10A, Compound 274] is 0.019 µM; for `CN(c1nc2cc(NC(=O)c3c(C(=O)N4CCOCC4)cnn3C)ccn2n1)C1CC1` [Roche-Dataset for PDE10A, Compound 418] it is 0.00262 µM.
`CN(C)C(=O)c1cnn(C)c1C(=O)N[C@@H]1CCn2c(nc(-c3ccccc3)c2Cl)C1` [Roche-Dataset for PDE10A, Compound 221] came in with a 50% inhibitory concentration (IC50) of 0.03 µM.
The figure for `O=C(NCCNS(=O)(=O)c1ccccc1)c1nc(C2CC2)cnc1Nc1cncnc1` [Roche-Dataset for PDE10A, Compound 839] is 0.403 µM; for `Cn1ncc(C(=O)N2CCC2)c1C(=O)Nc1ccn2nc(-c3cccc(OCCF)c3)nc2c1` [Roche-Dataset for PDE10A, Compound 76] it is 0.0009 µM; for `O=C(Nc1cc2nc(-c3ccccc3)cn2cc1Br)c1nc(C2CC2)ccc1Nc1cncnc1` [Roche-Dataset for PDE10A, Compound 354] it is 0.00115 µM.
With `Cn1nnc(C(=O)N2CCC2)c1C(=O)Nc1ccn2nc(-c3ccccc3)nc2c1` [Roche-Dataset for PDE10A, Compound 250], the IC50 worked out at 0.182 µM.
The figure for `O=C(Nc1ccn2nc(-c3ccccc3)nc2c1)c1onc2ccc(Br)cc12` [Roche-Dataset for PDE10A, Compound 592] is 0.01 µM.
Under `Cc1ncc(C)n2nc(CCc3nc(N)nn3C)nc12` [Roche-Dataset for PDE10A, Compound 1150] stands 3.93 µM; under `Cc1noc(C(=O)Nc2ccc3cc(-c4ccccc4)nn3c2)c1Br` [Roche-Dataset for PDE10A, Compound 529], 0.018 µM.
Under `O=C(c1nc(C2CC2)cnc1Nc1cncnc1)N1CCN(c2ccccc2F)CC1` [Roche-Dataset for PDE10A, Compound 975] stands 6.17 µM.
The compound `O=C(Nc1cnc(Cl)cc1Cl)c1nc(C2CC2)ccc1Nc1cncnc1` [Roche-Dataset for PDE10A, Compound 942] yielded an IC50 of 0.00994 µM.
`O=C(Nc1ccn(S(=O)(=O)C(F)(F)F)n1)c1nc(C2CC2)ccc1Nc1cncnc1` [Roche-Dataset for PDE10A, Compound 635]: the midpoint of inhibition, the IC50, lay at 0.018 µM.
Under `CC(=O)Nc1cccc(NC(=O)c2nc(C3CC3)cnc2Nc2cncnc2)n1` [Roche-Dataset for PDE10A, Compound 1084] stands 0.025 µM.
For `Cn1ncc(C(=O)N2CCOCC2)c1C(=O)Nc1cn(-c2ccc3ccccc3n2)cn1` [Roche-Dataset for PDE10A, Compound 222], the IC50 came to 0.00176 µM.
Under `Cn1cc(-c2ccccc2)nc1CCc1nc2ccccc2nc1N1CCCC1` [Roche-Dataset for PDE10A, Compound 98] stands 0.00344 µM; under `CCCCc1cc(NC(=O)c2c(C(=O)N3CCC3)cnn2C)nn1C1CCCC1` [Roche-Dataset for PDE10A, Compound 966], 0.568 µM.
Under `CNC(=O)c1c(NC(=O)c2nc(OC)cnc2Nc2cncnc2)cnn1C` [US8703768, 258] stands 0.141 µM.
The figure for `CCNC(=O)c1c(NC(=O)c2c(C(=O)N3CCC3)cnn2C)cnn1C` [Roche-Dataset for PDE10A, Compound 1120] is 3.13 µM; for `CN(C(=O)c1c(C(=O)N2CCC2)cnn1C)c1ccn2nc(-c3ccccc3)nc2c1` [Roche-Dataset for PDE10A, Compound 1062] it is 1.45 µM.
`Cn1ncc(C(=O)N2CCC2)c1C(=O)Nc1cn(-c2cnccn2)cn1` [Roche-Dataset for PDE10A, Compound 906] displayed an IC50 of 2.44 µM.
With `O=C(NC1CCN(c2ccccn2)CC1)c1nc(C2CC2)ccc1Nc1cncnc1` [Roche-Dataset for PDE10A, Compound 1045], the IC50 was found to be 0.197 µM.
`Cc1cc(C)n2nc(/C=C/c3nc(N(C)C)nn3C)nc2n1` [Roche-Dataset for PDE10A, Compound 1144] yielded a half-maximal inhibitory concentration (IC50) of 0.924 µM.
Turning to `CN(C)c1nc2cc(NC(=O)c3c(C(=O)N4CC(F)C4)cnn3C)ccn2n1` [Roche-Dataset for PDE10A, Compound 513], the half-maximal inhibitory concentration (IC50) came to 0.02 µM.
Under `Cn1cc(-c2ccccc2)nc1CCc1nc2ccc(Cl)cc2c(=O)[nH]1` [Roche-Dataset for PDE10A, Compound 93] stands 0.00914 µM; under `Cc1ncc(C)n2nc(/C=C/c3nc(N4CCCN4C)nn3C)nc12` [Roche-Dataset for PDE10A, Compound 911], 0.747 µM.
As for `COCCn1ccc(NC(=O)c2nc(Cl)ccc2Nc2cncnc2)n1` [Roche-Dataset for PDE10A, Compound 864], 0.117 µM corresponded to half-maximal inhibition (IC50). This IC50 is about 6.4-fold lower than that of the compound before.
The figure for `Cc1ncc(C)n2nc(CCc3nc(Br)nn3C)nc12` [Roche-Dataset for PDE10A, Compound 1131] is 2.48 µM; for `CN(C)c1nc2cc(NC(=O)c3c(C(=O)N4CCC4)cnn3C)ccc2s1` [Roche-Dataset for PDE10A, Compound 461] it is 0.00312 µM.
The figure for `Cc1nn(C)c2nc(OCc3nc(-c4ccccc4)cn3C)ncc12` [Roche-Dataset for PDE10A, Compound 396] is 0.107 µM; for `Cn1cc(-c2ccccc2)nc1COc1cnc(Br)c(C(=O)Nc2cncnc2)n1` [Roche-Dataset for PDE10A, Compound 716] it is 2.94 µM; for `COc1ccccc1-c1nc2cc(NC(=O)c3c(C(=O)N4CCC4)cnn3C)ccn2n1` [Roche-Dataset for PDE10A, Compound 120] it is 0.0006 µM.
Under `O=C(Nc1ccn2nc(-c3ccccc3)nc2c1)c1cc(Cl)ccn1` [Roche-Dataset for PDE10A, Compound 454] stands 0.076 µM; under `CNC(=O)c1cc(NC(=O)c2nc(C3CC3)ccc2Nc2cncnc2)n(C)n1` [Roche-Dataset for PDE10A, Compound 576], 0.074 µM.
As to `CN(C)c1nc(OCc2nc3ccccc3n2C)nc2ccc(Cl)cc12` [Roche-Dataset for PDE10A, Compound 470], the IC50 turned out to be 0.119 µM. This IC50 is about 1.6-fold higher than that of the compound before.
The figure for `O=C(NCc1ccc(C(F)(F)F)cc1)c1nc(C2CC2)cnc1Nc1cncnc1` [Roche-Dataset for PDE10A, Compound 668] is 0.1 µM; for `Cc1c(Cl)cc(OCC(=O)N2CCOCC2)c2nc(CCc3nc(N4CCCC4)nn3C)nn12` [Roche-Dataset for PDE10A, Compound 23] it is 0.00207 µM.
Under `O=C(Nc1cccnn1)c1nc(C2CC2)cnc1Nc1cncnc1` [Roche-Dataset for PDE10A, Compound 1105] stands 0.271 µM.
Take `O=C(N[C@@H](CO)Cc1ccccc1)c1nc(C2CC2)cnc1Nc1cncnc1` [Roche-Dataset for PDE10A, Compound 641]: the IC50 is 1.43 µM.
Under `COCCN(C)C(=O)c1cnn(C)c1C(=O)Nc1ccn2cc(-c3cccc(OCCCF)c3)nc2n1` [Roche-Dataset for PDE10A, Compound 3] stands 0.015 µM.
As for `CNC(=O)c1cc2[nH]c(-c3ccccc3)nc2cc1NC(=O)c1ccnnc1` [Roche-Dataset for PDE10A, Compound 466], the midpoint of inhibition, the IC50, lay at 0.023 µM. This IC50 lies about 1.5-fold higher than the previous one.
`Cc1ncc(C)n2nc(/C=C/c3nc(N4CCNCC4)nn3C)nc12` [Roche-Dataset for PDE10A, Compound 311] showed an IC50 of 1.55 µM. This IC50 is about 67-fold higher than that of the compound before.
The figure for `O=C(Nc1cc(-c2ccccn2)nn1C1CCOCC1)c1nc(C2CC2)ccc1Nc1cncnc1` [Roche-Dataset for PDE10A, Compound 24] is 0.00141 µM; for `Cn1ncc(C(=O)N2CCC2)c1C(=O)Nc1ccn(-c2ccccn2)n1` [Roche-Dataset for PDE10A, Compound 1095] it is 0.785 µM; for `COc1c(Cl)ccc2nc(CCc3nc(-c4ccccc4)cn3C)[nH]c(=O)c12` [Roche-Dataset for PDE10A, Compound 123] it is 0.033 µM.
Under `Cn1cc(-c2ccccc2)nc1COc1nc(N2CCOCC2)c2ccccc2n1` [Roche-Dataset for PDE10A, Compound 240] stands 0.011 µM.
Under `CCCn1ccc(NC(=O)c2nc(C3CC3)ccc2Nc2cncnc2)n1` [Roche-Dataset for PDE10A, Compound 643] stands 0.014 µM; under `CCn1ccc(NC(=O)c2c(C(=O)N3CCC3)cnn2C)n1` [Roche-Dataset for PDE10A, Compound 1121], 1.32 µM; under `Cc1ccc2nc(/C=C/c3nc(N4CCCC4)nn3C)nn2c1C` [Roche-Dataset for PDE10A, Compound 375], 0.00873 µM.
With `C/C(=C\c1nc2c(C)ncc(C)n2n1)c1nc(Br)nn1C` [Roche-Dataset for PDE10A, Compound 1125], the IC50 was 4.82 µM. Against the preceding compound, the IC50 is about 550-fold higher.
The figure for `CN(C(=O)c1cnn(C)c1C(=O)N[C@@H]1CCn2cc(-c3ccccc3OC(F)F)nc2C1)C1CC1` [Roche-Dataset for PDE10A, Compound 192] is 0.00798 µM; for `CNC(=O)c1cc(NC(C)=O)ccc1NC(=O)c1nc(C2CC2)cnc1Nc1cncnc1` [US8703768, 274] it is 0.00038 µM.
